Source: ChEMBL document CHEMBL1133057, “Synthesis and in vitro antibacterial activity of 3-[N-methyl-N-(3-methyl-1,3-thiazolium-2-yl)aminolmethyl cephalosporin derivatives” (2000)
≈ marks a conversion by molar mass, not a printed value.

Tests used:
Escherichia coli [1] = assay: Compound was tested in vitro for its minimum inhibitory concentration by serial 2-fold agar dilution Muller Hinton method against Escherichia coli 1507E; type: functional
Streptococcus pyogenes [2] = assay: Compound was tested in vitro for its minimum inhibitory concentration by serial 2-fold agar dilution Muller Hinton method against Streptococcus pyogenes A 308; type: functional
Pseudomonas aeruginosa [3] = assay: Compound was tested in vitro for its minimum inhibitory concentration by serial 2-fold agar dilution Muller Hinton method against Pseudomonas aeruginosa 1771 M; type: functional
Klebsiella aerogenes = assay: Compound was tested in vitro for its minimum inhibitory concentration by serial 2-fold agar dilution Muller Hinton method against Klebsiella aerogenes 1522 E; type: functional
Staphylococcus aureus [4] = assay: Compound was tested in vitro for its minimum inhibitory concentration by serial 2-fold agar dilution Muller Hinton method against Staphylococcus aureus 285; type: functional
Enterobacter cloacae [5] = assay: Compound was tested in vitro for its minimum inhibitory concentration by serial 2-fold agar dilution Muller Hinton method against Enterobacter cloacae 1321; type: functional
Salmonella typhimurium = assay: Compound was tested in vitro for its minimum inhibitory concentration by serial 2-fold agar dilution Muller Hinton method against Salmonella Typhimurium; type: functional, Salmonella enterica subsp. enterica serovar Typhimurium; settings: Salmonella enterica
Enterobacter cloacae [6] = assay: Compound was tested in vitro for its minimum inhibitory concentration by serial 2-fold agar dilution Muller Hinton method against Enterobacter cloacae P99; type: functional
Escherichia coli [7] = assay: Compound was tested in vitro for its minimum inhibitory concentration by serial 2-fold agar dilution Muller Hinton method against Escherichia coli O 55; type: functional
Staphylococcus aureus [8] = assay: Compound was tested in vitro for its minimum inhibitory concentration by serial 2-fold agar dilution Muller Hinton method against Staphylococcus aureus 503; type: functional
Streptococcus pyogenes [9] = assay: Compound was tested in vitro for its minimum inhibitory concentration by serial 2-fold agar dilution Muller Hinton method against Streptococcus pyogenes 8b; type: functional
Pseudomonas aeruginosa [10] = assay: Compound was tested in vitro for its minimum inhibitory concentration by serial 2-fold agar dilution Muller Hinton method against Pseudomonas aeruginosa 9027; type: functional
Klebsiella oxytoca = assay: Compound was tested in vitro for its minimum inhibitory concentration by serial 2-fold agar dilution Muller Hinton method against Klebsiella oxytoca 1082 E; type: functional
Pseudomonas aeruginosa [11] = assay: Compound was tested in vitro for its minimum inhibitory concentration by serial 2-fold agar dilution Muller Hinton method against Pseudomonas aeruginosa 1771; type: functional
Streptococcus pyogenes [12] = assay: Compound was tested in vitro for its minimum inhibitory concentration by serial 2-fold agar dilution Muller Hinton method against Streptococcus pyogenes A77; type: functional
Pseudomonas aeruginosa [13] = assay: Compound was tested in vitro for its minimum inhibitory concentration by serial 2-fold agar dilution Muller Hinton method against Pseudomonas aeruginosa 1592 E; type: functional
Staphylococcus aureus [14] = assay: Compound was tested in vitro for its minimum inhibitory concentration by serial 2-fold agar dilution Muller Hinton method against Staphylococcus aureus SG511; type: functional
Escherichia coli [15] = assay: Compound was tested in vitro for its minimum inhibitory concentration by serial 2-fold agar dilution Muller Hinton method against Escherichia coli DC 0; type: functional
Escherichia coli [16] = assay: Compound was tested in vitro for its minimum inhibitory concentration by serial 2-fold agar dilution Muller Hinton method against Escherichia coli TEM; type: functional
Escherichia coli [17] = assay: Compound was tested in vitro for its minimum inhibitory concentration by serial 2-fold agar dilution Muller Hinton method against Escherichia coli DC 2; type: functional

Row | Structure (SMILES) | MIC (Escherichia coli [1]) | MIC (Streptococcus pyogenes [2]) | MIC (Pseudomonas aeruginosa [3]) | MIC (Klebsiella aerogenes) | MIC (Staphylococcus aureus [4]) | MIC (Enterobacter cloacae [5]) | MIC (Salmonella typhimurium) | MIC (Enterobacter cloacae [6]) | MIC (Escherichia coli [7]) | MIC (Staphylococcus aureus [8]) | MIC (Streptococcus pyogenes [9]) | MIC (Pseudomonas aeruginosa [10]) | MIC (Klebsiella oxytoca) | MIC (Pseudomonas aeruginosa [11]) | MIC (Streptococcus pyogenes [12]) | MIC (Pseudomonas aeruginosa [13]) | MIC (Staphylococcus aureus [14]) | MIC (Escherichia coli [15]) | MIC (Escherichia coli [16]) | MIC (Escherichia coli [17])
1 | CO/N=C(\C(=O)NC1C(=O)N2C(C(=O)[O-])=C(CN(C)c3sc(C)c(C)[n+]3C)CSC12)c1csc(N)n1 (stereo not given) | 0.049 mg/L (≈ 0.0888 µM) | 0.013 mg/L (≈ 0.0236 µM) | 1.56 mg/L (≈ 2.83 µM) | 0.098 mg/L (≈ 0.178 µM) | 1.56 mg/L (≈ 2.83 µM) | 0.013 mg/L (≈ 0.0236 µM) | 0.098 mg/L (≈ 0.178 µM) | 12.5 mg/L (≈ 22.7 µM) | 0.025 mg/L (≈ 0.0453 µM) | 0.781 mg/L (≈ 1.42 µM) | > 100 mg/L | 50 mg/L (≈ 90.6 µM) | 6.25 mg/L (≈ 11.3 µM) | 25 mg/L (≈ 45.3 µM) | 0.007 mg/L (≈ 0.0127 µM) | 50 mg/L (≈ 90.6 µM) | 1.56 mg/L (≈ 2.83 µM) | 0.049 mg/L (≈ 0.0888 µM) | 0.049 mg/L (≈ 0.0888 µM) | 0.098 mg/L (≈ 0.178 µM)
2 | C=CCO/N=C(\C(=O)NC1C(=O)N2C(C(=O)[O-])=C(CN(C)c3scc(C)[n+]3C)CSC12)c1csc(N)n1 (stereo not given) | 0.195 mg/L (≈ 0.346 µM) | 0.013 mg/L (≈ 0.0231 µM) | 0.195 mg/L (≈ 0.346 µM) | 0.098 mg/L (≈ 0.174 µM) | 0.781 mg/L (≈ 1.39 µM) | 0.098 mg/L (≈ 0.174 µM) | 0.098 mg/L (≈ 0.174 µM) | 25 mg/L (≈ 44.4 µM) | 0.049 mg/L (≈ 0.0869 µM) | 0.195 mg/L (≈ 0.346 µM) | 25 mg/L (≈ 44.4 µM) | 25 mg/L (≈ 44.4 µM) | 12.5 mg/L (≈ 22.2 µM) | 6.25 mg/L (≈ 11.1 µM) | 0.007 mg/L (≈ 0.0124 µM) | 12.5 mg/L (≈ 22.2 µM) | 0.391 mg/L (≈ 0.694 µM) | 0.195 mg/L (≈ 0.346 µM) | 0.195 mg/L (≈ 0.346 µM) | 0.025 mg/L (≈ 0.0444 µM)
3 | CO/N=C(\C(=O)N[C@@H]1C(=O)N2C(C(=O)O)=C(COC(C)=O)CS[C@H]12)c1csc(N)n1 [CEFOTAXIME] | 0.025 mg/L (≈ 0.0549 µM) | 0.007 mg/L (≈ 0.0154 µM) | 0.098 mg/L (≈ 0.215 µM) | 0.025 mg/L (≈ 0.0549 µM) | 3.12 mg/L (≈ 6.86 µM) | 0.007 mg/L (≈ 0.0154 µM) | 0.025 mg/L (≈ 0.0549 µM) | 100 mg/L (≈ 220 µM) | 0.007 mg/L (≈ 0.0154 µM) | 0.781 mg/L (≈ 1.71 µM) | 100 mg/L (≈ 220 µM) | 25 mg/L (≈ 54.9 µM) | 1.56 mg/L (≈ 3.43 µM) | 3.12 mg/L (≈ 6.86 µM) | 0.002 mg/L (≈ 0.00439 µM) | 12.5 mg/L (≈ 27.4 µM) | 1.56 mg/L (≈ 3.43 µM) | 0.025 mg/L (≈ 0.0549 µM) | 0.025 mg/L (≈ 0.0549 µM) | 0.013 mg/L (≈ 0.0285 µM)
4 | CO/N=C(\C(=O)N[C@@H]1C(=O)N2C(C(=O)[O-])=C(C[n+]3cccc4c3CCC4)CS[C@H]12)c1csc(N)n1 [CEFPIROME] | 0.025 mg/L (≈ 0.0486 µM) | 0.007 mg/L (≈ 0.0136 µM) | 0.391 mg/L (≈ 0.76 µM) | 0.025 mg/L (≈ 0.0486 µM) | 0.781 mg/L (≈ 1.52 µM) | 0.013 mg/L (≈ 0.0253 µM) | 0.025 mg/L (≈ 0.0486 µM) | 3.12 mg/L (≈ 6.07 µM) | 0.025 mg/L (≈ 0.0486 µM) | 0.098 mg/L (≈ 0.19 µM) | 1.56 mg/L (≈ 3.04 µM) | 3.12 mg/L (≈ 6.07 µM) | 1.56 mg/L (≈ 3.04 µM) | 0.781 mg/L (≈ 1.52 µM) | 0.007 mg/L (≈ 0.0136 µM) | 1.56 mg/L (≈ 3.04 µM) | 0.391 mg/L (≈ 0.76 µM) | 0.013 mg/L (≈ 0.0253 µM) | 0.049 mg/L (≈ 0.0952 µM) | 0.049 mg/L (≈ 0.0952 µM)
